# Like-named read-outs stand apart in the source and are kept apart here.
# Key:
# [1] = format: in vivo; settings: stable iodine equivalent to 100 mg/70 Kg adult per day administered orally, 2 h post i.p. ^131I
# [2] = format: in vivo; settings: stable iodine equivalent to 100 mg/70 Kg adult per day mixed with diet, 2 h post i.p. ^131I
# [3] = format: in vivo; settings: rats; 24 h post oral ^131I; stable iodide equivalent to 100 mg/70 Kg adult given orally 2 h post ^131I
# [4] = format: in vivo; settings: 24 h post ip. ^131I; stable iodine given 2 h post ^131I
# [5] = Whole body retention of ^137Cs, CKF vs Prussian Blue; format: in vivo
# [6] = experimental animals
# [7] = test system: rat bone marrow erythrocytes; format: in vivo; settings: FIG. 2
# Excerpt: […]. The geno-toxicity assessment of [CaK2Fe(CN)6] and Prussian Blue for the formation of micronuclei (i.e. part of parent nucleus, which is left behind in the cytoplasm as a daughter nuclei, due to damage to chromosomes during cell division).
# [8] = Percent binding capacity of *Cs at different pH; format: physicochemical
# [9] = some subjects; cited from earlier work
# DNA damage = settings: FIG. 3
compound,measurement,setting,value
[K+].[O-][I+2]([O-])[O-] [KIO3],WHOLE BODY RETENTION OF RADIO-IODINE,[1]; day 1,28 ± 4
same,WHOLE BODY RETENTION OF RADIO-IODINE,[1]; day 2,12 ± 2
same,WHOLE BODY RETENTION OF RADIO-IODINE,[1]; day 3,10 ± 3
same,WHOLE BODY RETENTION OF RADIO-IODINE,[1]; day 4,8 ± 1
same,WHOLE BODY RETENTION OF RADIO-IODINE,[1]; day 5,7 ± 2
same,WHOLE BODY RETENTION OF RADIO-IODINE,[1]; day 6,7 ± 4
same,WHOLE BODY RETENTION OF RADIO-IODINE,[1]; day 7,8 ± 2
same,WHOLE BODY RETENTION OF RADIO-IODINE,[1]; day 9,6 ± 2
same,WHOLE BODY RETENTION OF RADIO-IODINE,[2]; day 1,28 ± 3
same,WHOLE BODY RETENTION OF RADIO-IODINE,[2]; day 2,12 ± 2
same,WHOLE BODY RETENTION OF RADIO-IODINE,[2]; day 3,10 ± 4
same,WHOLE BODY RETENTION OF RADIO-IODINE,[2]; day 4,8 ± 2
same,WHOLE BODY RETENTION OF RADIO-IODINE,[2]; day 5,7 ± 3
same,WHOLE BODY RETENTION OF RADIO-IODINE,[2]; day 6,7 ± 1
same,WHOLE BODY RETENTION OF RADIO-IODINE,[2]; day 7,8 ± 2
same,WHOLE BODY RETENTION OF RADIO-IODINE,[2]; day 9,6 ± 3
same,WHOLE BODY RETENTION OF RADIO-IODINE,[2]; day 10,3 ± 4
same,WHOLE BODY RETENTION OF RADIO-IODINE,[2]; day 11,2 ± 1
same,WHOLE BODY RETENTION OF RADIO-IODINE,[2]; day 13,2 ± 2
same,WHOLE BODY RETENTION OF RADIO-IODINE,[2]; day 14,1 ± 1
same,Percent ^131I WBR,[3],14 ± 3 percent administered dose
same,Percent ^131I in BLOOD,[3],0.6 ± 0.05 percent administered dose
same,Percent ^131I in CARCAS,[3],8 ± 0.5 percent administered dose
same,Percent ^131I in EXCRETA,[3],81 ± 1 percent administered dose
same,Percent ^131I in LIVER + GUT,[3],7 ± 0.5 percent administered dose
same,Percent ^131I in THYROID,[3],4 ± 0.5 percent administered dose
same,Percent ^131I WBR,[4],40 ± 2%
same,Percent ^131I in BLOOD,[4],1.6 ± 0.4%
same,Percent ^131I in CARCAS,[4],17 ± 2%
same,Percent ^131I in EXCRETA,[4],64 ± 5%
same,Percent ^131I in LIVER + GUT,[4],16 ± 1%
same,Percent ^131I in THYROID,[4],10 ± 1%
"[C-]#N.[C-]#N.[C-]#N.[C-]#N.[C-]#N.[C-]#N.[C-]#N.[C-]#N.[C-]#N.[C-]#N.[C-]#N.[C-]#N.[C-]#N.[C-]#N.[C-]#N.[C-]#N.[C-]#N.[C-]#N.[Fe+2].[Fe+2].[Fe+2].[Fe+3].[Fe+3].[Fe+3].[Fe+3] [PB, ferric hexa-cyanoferrate (II)]",WHOLE BODY RETENTION - ^137Cs,[5]; day 0,100 percent administered dose
same,WHOLE BODY RETENTION - ^137Cs,[5]; day 1,61 ± 10 percent administered dose
same,WHOLE BODY RETENTION - ^137Cs,[5]; day 4,31 ± 4 percent administered dose
same,WHOLE BODY RETENTION - ^137Cs,[5]; day 8,21 ± 3 percent administered dose
same,WHOLE BODY RETENTION - ^137Cs,[5]; day 12,15 ± 2 percent administered dose
same,WHOLE BODY RETENTION - ^137Cs,[5]; day 16,11 ± 2 percent administered dose
same,WHOLE BODY RETENTION - ^137Cs,[5]; day 20,7 ± 1 percent administered dose
same,WHOLE BODY RETENTION - ^137Cs,[5]; day 24,6 ± 1 percent administered dose
same,WHOLE BODY RETENTION - ^137Cs,[5]; day 28,5 ± 1 percent administered dose
same,speed of removing *Cs from in vivo system,[5]; experimental animals,slow
same,gastro-intestinal and cardio-toxicity (histo-pathologic changes),[6],induces gastro-intestinal and cardio-toxicity
same,"micronuclei formation, means±SE versus control",[7]; all the tested doses,not significantly different from control
same,"geno-toxicity, micronuclei formation",[7]; dose of 5 mg/100 g BW (equivalent to 3.5 g/d/70 Kg adult),did not induce any toxicity
same,"geno-toxicity, micronuclei formation",[7]; five and ten times the dose of 5 mg/100 g BW,marginal increase in the formation of micronuclei
same,binding with *Cs,"[8]; FIG. 4, neutral pH",weaker binding
same,PERCENT BINDING CAPACITY of *Cs,[8]; pH 2,27 ± 2%
same,PERCENT BINDING CAPACITY of *Cs,[8]; pH 3,58 ± 0.7%
same,PERCENT BINDING CAPACITY of *Cs,[8]; pH 4,75 ± 0.4%
same,PERCENT BINDING CAPACITY of *Cs,[8]; pH 5,75 ± 0.3%
same,PERCENT BINDING CAPACITY of *Cs,[8]; pH 6,67 ± 0.6%
same,PERCENT BINDING CAPACITY of *Cs,[8]; pH 7,59 ± 0.9%
same,constipation,[9],induce constipation in some subjects
same,DNA damage in alkaline comet assay,DNA damage,do not induce any apparent DNA damage

# Source: US7935366B2 (priority 2006, dated 2011)
